{
  "source": "patent US20240049723A1",
  "about": "“PLANT GROWTH REGULATOR OR METHOD FOR PROMOTING PLANT GROWTH” (Kureha Corporation, priority 2021, published 2024)",
  "format_in_all_cases": "in vivo",
  "key": {"[1]": {"system": "Arabidopsis thaliana (Col-0)", "test": "Evaluation Example 1: seed yield of Arabidopsis thaliana, hot water extraction products", "details": "EGT concentration 1 mM, harvested 89th day after seeding", "procedure": "(§1) One individual Arabidopsis thaliana (Col-0) was sown in a plastic pot having a diameter of 60 mm and a height of 55 mm. Plastic deep dishes each having a diameter of 160 mm and a height of 28 mm were prepared, and six pots were respectively placed therein. As soil, 45 mL of vermiculite, 22.5 mL of granular soil (Kumiai horticultural soil), and 22.5 mL of vermiculite were placed in the pot in this order.\n(§2) In a thermostatic chamber set at room temperature of 22° C., the light period was 16 hours and the dark period was 8 hours. The light conditions were set using a fluorescent lamp (PLANT FLEC, 40 W LED fluorescent lamp for plant growth, electric bulb color, available from Nippon Medical and Chemical Instruments Co., Ltd.) such that the light intensity was 5000 lx in the central part under irradiation with the fluorescent lamp. Water supply was conducted from the bottom, and the water level was set at about 5 mm. Chemical treatment was started 2 weeks after seeding. More specifically, on the 8th, 10th, 12th, and 14th days after seeding, 50 mL of the plant growth regulator was added instead of water supply.\nAs the plant growth regulator, the hot water extraction product prepared in Production Example 1 was used. […]\nOn the 89th day after seeding, seeds were harvested, and the seed yield was evaluated."}, "[2]": {"system": "Arabidopsis thaliana (Col-0)", "test": "Evaluation Example 2: seed yield of Arabidopsis thaliana, C-EGT-DCH", "details": "EGT concentration 0.1 mM; harvested 87th day after seeding", "procedure": "as §1\nas §2, with “growth” for “thermostatic”, “set” for “set using a fluorescent lamp (PLANT FLEC, 40 W LED fluorescent lamp for plant growth, electric bulb color, available from Nippon Medical and Chemical Instruments Co., Ltd.)”\nAs the plant growth regulator, the hot water extraction product of Dirkmeia churashimaensis (C-EGT-DCH) prepared in Production Example 1 was used. Furthermore, for comparison, a plant growth regulator formed from 0.1 mM of ergothioneine aqueous solution was used.\nOn the 87th day after seeding, seeds were harvested, and the seed yield was evaluated."}, "wheat": {"system": "wheat", "test": "Evaluation Example 3: plant height of wheat, petri dish", "details": "EGT concentration 1 mM; 7th day after seeding", "procedure": "(§3) In a 9 cm petri dish on which filter paper was spread, 10 mL of the plant growth regulator was added. Ten seeds of wheat or rapeseed were sown per one petri dish. In a thermostatic chamber set at room temperature of 25° C., the light period was 16 hours and the dark period was 8 hours. The light conditions were set using a fluorescent lamp (PLANT FLEC, 40 W LED fluorescent lamp for plant growth, electric bulb color, available from Nippon Medical and Chemical Instruments Co., Ltd.) such that the light intensity was 5000 lx in the central part under irradiation with the fluorescent lamp.\n(§4) As the plant growth regulator, the hot water extraction product prepared in Production Example 1 was used. Furthermore, for comparison, a plant growth regulator formed from 1 mM of ergothioneine aqueous solution was used.\n(§5) The plant height of the wheat or rapeseed on the 7th day after seeding was evaluated."}, "rapeseed": {"system": "rapeseed", "test": "Evaluation Example 3: plant height of rapeseed, petri dish", "details": "EGT concentration 1 mM; 7th day after seeding", "procedure": "as §3, §4, §5"}, "tomato (Micro Tom)": {"system": "tomato (Micro Tom)", "test": "Evaluation Example 4: number of flowers of tomato", "details": "EGT concentration 0.1 mM; 64th day after seeding", "procedure": "In a plastic pot having a square of 120 mm length and a height of 100 mm, 1 L of granular soil (Kumiai horticultural soil) was placed, and one individual tomato (Micro Tom) was sown in a pot.\nas §2, with “25°” for “22°”, “4” for “2”, “25th, 27th, 29th, 31st, 33rd, 35th,” for “8th, 10th, 12th,”, “37th” for “14th”\n(§6) As the plant growth regulator, the hot water extraction product of Pseudozyma siamensis (C-EGT-PSI) prepared in Production Example 1 was used. Furthermore, for comparison, a plant growth regulator formed from 0.1 mM of ergothioneine aqueous solution was used.\nOn the 64th day after seeding, the number of flowers was evaluated."}, "radish (Akamaru Hatsuka)": {"system": "radish (Akamaru Hatsuka)", "test": "Evaluation Example 5: underground part weight of radish", "details": "EGT concentration 0.1 mM; 28th day after seeding", "procedure": "In a plastic pot having a diameter of 100 mm and a height of 135 mm, 600 mL of granular soil (Kumiai horticultural soil) was placed, and one individual radish (Akamaru Hatsuka) was sown in a pot.\nThe radish was managed in a greenhouse set at room temperature of 25° C. Chemical treatment was started 2 weeks after seeding. More specifically, on the 10th, 12th, 14th, and 16th days after seeding, 50 mL of the plant growth regulator was added.\nas §6\nOn the 28th day after seeding, the underground part weight was evaluated."}, "[3]": {"system": "Arabidopsis thaliana (Col-0)", "test": "Evaluation Example 6: Arabidopsis thaliana treated with Pseudozyma siamensis extracts from various extraction methods", "details": "EGT concentration 0.1 mM", "procedure": "as §1\nas §2, with “growth” for “thermostatic”, “set” for “set using a fluorescent lamp (PLANT FLEC, 40 W LED fluorescent lamp for plant growth, electric bulb color, available from Nippon Medical and Chemical Instruments Co., Ltd.)”\n(§7) As the plant growth regulator, various extracts of Pseudozyma siamensis obtained in Production Example 2 were used. Furthermore, for comparison, a plant growth regulator formed from 0.1 mM of ergothioneine aqueous solution was used.\nOn the 95th day after seeding, seeds were harvested, and the seed yield was evaluated."}, "[4]": {"system": "Arabidopsis thaliana (Col-0)", "test": "Evaluation Example 7: Arabidopsis thaliana treated with Pseudozyma siamensis extracts from various extraction methods", "details": "EGT concentration 0.1 mM; 93rd day after seeding", "procedure": "as §1\nas §2, with “growth” for “thermostatic”, “set” for “set using a fluorescent lamp (PLANT FLEC, 40 W LED fluorescent lamp for plant growth, electric bulb color, available from Nippon Medical and Chemical Instruments Co., Ltd.)”\nas §7\nOn the 93rd day after seeding, the plant height, the aboveground part weight, and the seed yield were evaluated."}, "[5]": {"details": "harvested 95th day after seeding"}},
  "data": [
    {"smiles": "C[N+](C)(C)[C@@H](Cc1c[nH]c(=S)[nH]1)C(=O)[O-]", "note": "[EGT, ergothioneine]", "values": [
      {"measurement": "Seed yield ratio to EGT", "setting": "[1]; compared with 1 mM EGT", "value": 1.0},
      {"measurement": "Seed yield ratio to untreated control", "setting": "[1]; 50 mL on 8th, 10th, 12th, 14th days", "value": 1.2},
      {"measurement": "Seed yield ratio to EGT", "setting": "[2]", "value": 1.0},
      {"measurement": "Seed yield ratio to untreated control", "setting": "[2]", "value": 1.3},
      {"measurement": "Wheat plant height ratio to EGT", "setting": "wheat", "value": 1.0},
      {"measurement": "Wheat plant height ratio to untreated control", "setting": "wheat", "value": 1.1},
      {"measurement": "Rapeseed plant height ratio to EGT", "setting": "rapeseed", "value": 1.0},
      {"measurement": "Rapeseed plant height ratio to untreated control", "setting": "rapeseed", "value": 1.1},
      {"measurement": "Flower number ratio to EGT", "setting": "tomato (Micro Tom)", "value": 1.0},
      {"measurement": "Flower number ratio to untreated control", "setting": "tomato (Micro Tom)", "value": 1.3},
      {"measurement": "Underground part weight ratio to EGT", "setting": "radish (Akamaru Hatsuka)", "value": 1.0},
      {"measurement": "Underground part weight ratio to untreated control", "setting": "radish (Akamaru Hatsuka)", "value": 1.2},
      {"measurement": "Plant height ratio to EGT", "setting": "[3]; 95th day after seeding", "value": 1.0},
      {"measurement": "Plant height ratio to untreated control", "setting": "[3]; 95th day after seeding", "value": 1.1},
      {"measurement": "Seed yield ratio to EGT", "setting": "[3]; [5]", "value": 1.0},
      {"measurement": "Seed yield ratio to untreated control", "setting": "[3]; [5]", "value": 1.2},
      {"measurement": "Aboveground part weight ratio to EGT", "setting": "[4]", "value": 1.0},
      {"measurement": "Aboveground part weight ratio to untreated control", "setting": "[4]", "value": 1.1},
      {"measurement": "Plant height ratio to EGT", "setting": "[4]", "value": 1.0},
      {"measurement": "Plant height ratio to untreated control", "setting": "[4]", "value": 1.1},
      {"measurement": "Seed yield ratio to EGT", "setting": "[4]", "value": 1.0},
      {"measurement": "Seed yield ratio to untreated control", "setting": "[4]", "value": 1.3}
    ]}
  ]
}
